Compound: C[C@@H](Oc1cc(-c2cnn(C3CCNCC3)c2)cnc1N)c1c(Cl)ccc(F)c1Cl [Crizotinib] + NC(=O)Nc1cc(-c2cccc(F)c2)sc1C(=O)N[C@H]1CCCNC1 [AZD7762] (partner 0.2 µM)
Experiment: relative viability (nuclei count vs DMSO), 5 days (fraction); higher = more cells survive
Settings: first compound 1 µM
Method in brief: (§1)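 Relative viability was taken as the ratio of nuclei in treated wells to nuclei in vehicle wells. Lung cancer cell lines in 1536-well plates received compounds by pin tool one day after seeding, either one drug alone or a fixed anchor-drug dose plus five library-drug doses (not always all listed) in √10 steps. Nuclei were counted on 4× images after 5 days of treatment, and values are medians of duplicate plates.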

| Cell Line | relative viability |
| --- | --- |
| EKVX | 0.726 |
| EMC-BAC-2 | 1.08 |
| EPLC-272H | 0.35 |
| H3255 | 0.923 |
| HARA | 0.516 |
| HCC-15 | 1.14 |
| HCC-44 | 1.02 |
| HCC-78 | 0.487 |
| HCC-366 | 0.289 |
| HCC-827 | 0.217 |
| HOP-62 | 0.633 |
| LCLC-103H | 0.804 |
| NCI-H358 | 0.492 |
| NCI-H441 | 1.21 |
| NCI-H522 | 0.846 |
| NCI-H650 | 0.945 |
| NCI-H1648 | 0.723 |
| NCI-H1792 | 0.63 |
| NCI-H2342 | 0.575 |
| SW 900 | 0.617 |

Compound: O=C(c1cc(Cc2n[nH]c(=O)c3ccccc23)ccc1F)N1CCN(C(=O)C2CC2)CC1 [Olaparib] + CC1(C)CCC(c2ccc(Cl)cc2)=C(CN2CCN(c3ccc(C(=O)NS(=O)(=O)c4ccc(N[C@H](CCN5CCOCC5)CSc5ccccc5)c(S(=O)(=O)C(F)(F)F)c4)cc3)CC2)C1 [Navitoclax] (partner 0.5 µM)
Experiment: as above
Settings: first compound 0.08 µM
Method in brief: as §1

| Cell Line | relative viability |
| --- | --- |
| 201T | 1.18 |
| A549 | 1.33 |
| A-427 | 0.946 |
| BEN | 0.0771 |
| CAL-12T | 1.35 |
| COR-L23 | 1.12 |
| COR-L 105 | 0.781 |
| Calu-6 | 0.859 |
| ChaGo-K-1 | 1.44 |
| EBC-1 | 0.46 |
| EKVX | 1.1 |
| EMC-BAC-2 | 1.37 |
| EPLC-272H | 1.28 |
| H3255 | 0.53 |
| HARA | 1.14 |
| HCC-15 | 0.751 |
| HCC-44 | 0.913 |

| Cell Line | relative viability |
| --- | --- |
| HCC-78 | 0.977 |
| HCC-366 | 1.08 |
| HCC-827 | 0.979 |
| HOP-62 | 1.22 |
| IA-LM | 0.825 |
| NCI-H520 | 1.32 |
| NCI-H1299 | 1.07 |
| NCI-H1650 | 1.7 |
| NCI-H1792 | 0.666 |
| NCI-H2009 | 1.31 |
| NCI-H2023 | 1.05 |
| NCI-H2228 | 1.14 |
| SK-LU-1 | 0.941 |
| SK-MES-1 | 1.15 |
| SW 1573 | 0.958 |
| UMC-11 | 0.398 |

Same assay, conditions: first compound 0.253 µM

| Cell Line | relative viability |
| --- | --- |
| 201T | 1.2 |
| A549 | 0.991 |
| A-427 | 0.93 |
| BEN | 0.0609 |
| CAL-12T | 1.19 |
| COR-L23 | 0.877 |
| COR-L 105 | 0.822 |
| Calu-6 | 0.741 |
| ChaGo-K-1 | 0.989 |
| EBC-1 | 0.403 |
| EKVX | 0.876 |
| EMC-BAC-2 | 1.1 |
| EPLC-272H | 1.1 |
| H3255 | 0.426 |
| HARA | 1.08 |
| HCC-15 | 0.657 |
| HCC-44 | 0.941 |

| Cell Line | relative viability |
| --- | --- |
| HCC-78 | 0.738 |
| HCC-366 | 0.985 |
| HCC-827 | 0.933 |
| HOP-62 | 0.929 |
| IA-LM | 0.784 |
| NCI-H441 | 0.406 |
| NCI-H520 | 0.932 |
| NCI-H1299 | 0.995 |
| NCI-H1650 | 1.1 |
| NCI-H1792 | 0.555 |
| NCI-H2009 | 1.05 |
| NCI-H2023 | 0.973 |
| NCI-H2228 | 0.809 |
| SK-LU-1 | 0.785 |
| SK-MES-1 | 1.07 |
| SW 1573 | 0.795 |
| UMC-11 | 0.321 |

Same assay, conditions: first compound 2.53 µM

| Cell Line | relative viability |
| --- | --- |
| 201T | 1.19 |
| A549 | 0.81 |
| A-427 | 0.526 |
| BEN | 0.0668 |
| CAL-12T | 1.41 |
| COR-L23 | 0.713 |
| COR-L 105 | 0.574 |
| Calu-6 | 0.764 |
| ChaGo-K-1 | 0.953 |
| EBC-1 | 0.44 |
| EKVX | 0.97 |
| EMC-BAC-2 | 0.999 |
| EPLC-272H | 1.16 |
| H3255 | 0.655 |
| HARA | 1.04 |
| HCC-15 | 0.719 |
| HCC-44 | 0.934 |

| Cell Line | relative viability |
| --- | --- |
| HCC-78 | 0.819 |
| HCC-366 | 0.827 |
| HCC-827 | 0.978 |
| HOP-62 | 1.06 |
| IA-LM | 0.707 |
| NCI-H441 | 0.706 |
| NCI-H520 | 1.08 |
| NCI-H1299 | 1.04 |
| NCI-H1650 | 1.24 |
| NCI-H1792 | 0.505 |
| NCI-H2009 | 1.1 |
| NCI-H2023 | 0.959 |
| NCI-H2228 | 0.707 |
| SK-LU-1 | 0.749 |
| SK-MES-1 | 1.13 |
| SW 1573 | 0.858 |
| UMC-11 | 0.259 |

Same assay, conditions: first compound 8 µM

| Cell Line | relative viability |
| --- | --- |
| 201T | 1.15 |
| A549 | 0.597 |
| A-427 | 0.554 |
| BEN | 0.0792 |
| CAL-12T | 1.08 |
| COR-L23 | 0.44 |
| COR-L 105 | 0.48 |
| Calu-6 | 0.506 |
| ChaGo-K-1 | 0.848 |
| EBC-1 | 0.318 |
| EKVX | 0.944 |
| EMC-BAC-2 | 1.01 |
| EPLC-272H | 0.995 |
| H3255 | 0.437 |
| HARA | 0.99 |
| HCC-15 | 0.643 |
| HCC-44 | 0.933 |

| Cell Line | relative viability |
| --- | --- |
| HCC-78 | 0.572 |
| HCC-366 | 0.492 |
| HCC-827 | 0.855 |
| HOP-62 | 0.823 |
| IA-LM | 0.502 |
| NCI-H441 | 0.582 |
| NCI-H520 | 0.601 |
| NCI-H1299 | 0.944 |
| NCI-H1650 | 1.11 |
| NCI-H1792 | 0.512 |
| NCI-H2009 | 0.996 |
| NCI-H2023 | 0.787 |
| NCI-H2228 | 0.587 |
| SK-LU-1 | 0.409 |
| SK-MES-1 | 0.825 |
| SW 1573 | 0.671 |
| UMC-11 | 0.207 |

Reference: the supplement of paper PMC10307832
